In US20050107437A1, “Novel herbicides” (priority 2001, published 2005):

What was measured:
Type in all cases: in vivo
Amaranthus (Amar) [1] = test: Pre-emergence herbicidal action (Example B1); set-up: key: 1=total damage; 9=no action; Ratings of from 1 to 4 (especially from 1 to 3) indicate good to very good herbicidal action; conditions: 1000 g of active ingredient/ha, 4 weeks, scale of nine ratings
Procedure: (§1) Monocotyledonous and dicotyledonous test plants are sown in standard soil in pots. Immediately after sowing, the test compounds, in the form of an aqueous suspension (prepared from a wettable powder (Example F3, b) according to WO 97/34485) or in the form of an emulsion (prepared from an emulsifiable concentrate (Example F1, c) according to WO 97/34485), are applied by spraying in an optimum concentration (500 litres of water/ha). The test plants are then grown in a greenhouse under optimum conditions. After a test duration of 4 weeks, the test is evaluated in accordance with a scale of nine ratings (1=total damage, 9=no action). Ratings of from 1 to 4 (especially from 1 to 3) indicate good to very good herbicidal action. Test plants: Setaria (Seta), Panicum (Pani), Echinochloa (Ds) (Echino), Amaranthus (Amar), Chenopodium (Cheno), Stellaria (Stella), Veronica, Euphorbia (Eupho), Brachiaria (Brachi).

Brachiaria (Brachi) = test: Pre-emergence herbicidal action (Example B1); set-up: key: 1=total damage; 9=no action; Ratings of from 1 to 4 (especially from 1 to 3) indicate good to very good herbicidal action; conditions: 1000 g of active ingredient/ha, 4 weeks, scale of nine ratings
Procedure: as §1

[2] = system: Echinochloa (Ds) (Echino); test: Pre-emergence herbicidal action (Example B1); set-up: key: 1=total damage; 9=no action; Ratings of from 1 to 4 (especially from 1 to 3) indicate good to very good herbicidal action; conditions: 1000 g of active ingredient/ha, 4 weeks, scale of nine ratings
Procedure: as §1

Euphorbia (Eupho) [3] = test: Pre-emergence herbicidal action (Example B1); set-up: key: 1=total damage; 9=no action; Ratings of from 1 to 4 (especially from 1 to 3) indicate good to very good herbicidal action; conditions: 1000 g of active ingredient/ha, 4 weeks, scale of nine ratings
Procedure: as §1

Panicum (Pani) [4] = test: Pre-emergence herbicidal action (Example B1); set-up: key: 1=total damage; 9=no action; Ratings of from 1 to 4 (especially from 1 to 3) indicate good to very good herbicidal action; conditions: 1000 g of active ingredient/ha, 4 weeks, scale of nine ratings
Procedure: as §1

Setaria (Seta) [5] = test: Pre-emergence herbicidal action (Example B1); set-up: key: 1=total damage; 9=no action; Ratings of from 1 to 4 (especially from 1 to 3) indicate good to very good herbicidal action; conditions: 1000 g of active ingredient/ha, 4 weeks, scale of nine ratings
Procedure: as §1

Chenopodium (Cheno) [6] = test: Post-emergence herbicidal action (Example B2); conditions: 1000 g of active ingredient/ha, evaluated after 2 to 3 weeks, scale 1-9
Procedure: as §1, with “pots. When the test plants are at the 2- to 3-leaf stage,” for “pots. Immediately after sowing,”, “grown on” for “grown”, “of 2 to 3” for “of 4”, “Euphorbia (Eupho).” for “Euphorbia (Eupho), Brachiaria (Brachi).”

[7] = system: Echinochloa (Ds) (Echino); test: Post-emergence herbicidal action (Example B2); conditions: 1000 g of active ingredient/ha, evaluated after 2 to 3 weeks, scale 1-9
Procedure: as §1, with “pots. When the test plants are at the 2- to 3-leaf stage,” for “pots. Immediately after sowing,”, “grown on” for “grown”, “of 2 to 3” for “of 4”, “Euphorbia (Eupho).” for “Euphorbia (Eupho), Brachiaria (Brachi).”

Panicum (Pani) [8] = test: Post-emergence herbicidal action (Example B2); conditions: 1000 g of active ingredient/ha, evaluated after 2 to 3 weeks, scale 1-9
Procedure: as §1, with “pots. When the test plants are at the 2- to 3-leaf stage,” for “pots. Immediately after sowing,”, “grown on” for “grown”, “of 2 to 3” for “of 4”, “Euphorbia (Eupho).” for “Euphorbia (Eupho), Brachiaria (Brachi).”

Setaria (Seta) [9] = test: Post-emergence herbicidal action (Example B2); conditions: 1000 g of active ingredient/ha, evaluated after 2 to 3 weeks, scale 1-9
Procedure: as §1, with “pots. When the test plants are at the 2- to 3-leaf stage,” for “pots. Immediately after sowing,”, “grown on” for “grown”, “of 2 to 3” for “of 4”, “Euphorbia (Eupho).” for “Euphorbia (Eupho), Brachiaria (Brachi).”

Amaranthus (Amar) [10] = test: Post-emergence herbicidal action (Example B2); set-up: key: 1=total damage; 9=no action; Ratings of from 1 to 4 (especially from 1 to 3) indicate good to very good herbicidal action; conditions: 1000 g of active ingredient/ha, evaluated after 2 to 3 weeks, scale 1-9
Procedure: as §1, with “pots. When the test plants are at the 2- to 3-leaf stage,” for “pots. Immediately after sowing,”, “grown on” for “grown”, “of 2 to 3” for “of 4”, “Euphorbia (Eupho).” for “Euphorbia (Eupho), Brachiaria (Brachi).”

Euphorbia (Eupho) [11] = test: Post-emergence herbicidal action (Example B2); set-up: key: 1=total damage; 9=no action; Ratings of from 1 to 4 (especially from 1 to 3) indicate good to very good herbicidal action; conditions: 1000 g of active ingredient/ha, evaluated after 2 to 3 weeks, scale 1-9
Procedure: as §1, with “pots. When the test plants are at the 2- to 3-leaf stage,” for “pots. Immediately after sowing,”, “grown on” for “grown”, “of 2 to 3” for “of 4”, “Euphorbia (Eupho).” for “Euphorbia (Eupho), Brachiaria (Brachi).”

Chenopodium (Cheno) [12] = test: Pre-emergence herbicidal action (Example B1); set-up: key: 1=total damage; 9=no action; Ratings of from 1 to 4 (especially from 1 to 3) indicate good to very good herbicidal action; conditions: 1000 g of active ingredient/ha, 4 weeks, scale of nine ratings
Procedure: as §1

Stellaria (Stella) [13] = test: Pre-emergence herbicidal action (Example B1); set-up: key: 1=total damage; 9=no action; Ratings of from 1 to 4 (especially from 1 to 3) indicate good to very good herbicidal action; conditions: 1000 g of active ingredient/ha, 4 weeks, scale of nine ratings
Procedure: as §1

Veronica [14] = test: Pre-emergence herbicidal action (Example B1); conditions: 1000 g of active ingredient/ha, 4 weeks, scale of nine ratings
Procedure: as §1

Stellaria (Stella) [15] = test: Post-emergence herbicidal action (Example B2); conditions: 1000 g of active ingredient/ha, evaluated after 2 to 3 weeks, scale 1-9
Procedure: as §1, with “pots. When the test plants are at the 2- to 3-leaf stage,” for “pots. Immediately after sowing,”, “grown on” for “grown”, “of 2 to 3” for “of 4”, “Euphorbia (Eupho).” for “Euphorbia (Eupho), Brachiaria (Brachi).”

Veronica [16] = test: Post-emergence herbicidal action (Example B2); conditions: 1000 g of active ingredient/ha, evaluated after 2 to 3 weeks, scale 1-9
Procedure: as §1, with “pots. When the test plants are at the 2- to 3-leaf stage,” for “pots. Immediately after sowing,”, “grown on” for “grown”, “of 2 to 3” for “of 4”, “Euphorbia (Eupho).” for “Euphorbia (Eupho), Brachiaria (Brachi).”

Row | Structure (SMILES) | Herbicidal rating Amar (Amaranthus (Amar) [1]) | Herbicidal rating Brachi (Brachiaria (Brachi)) | Herbicidal rating Echino (Ds) [2] | Herbicidal rating Eupho (Euphorbia (Eupho) [3]) | Herbicidal rating Pani (Panicum (Pani) [4]) | Herbicidal rating Seta (Setaria (Seta) [5]) | Post-emergence herbicidal action rating, Cheno (Chenopodium (Cheno) [6]) | Post-emergence herbicidal action rating, Echino (Ds) [7] | Post-emergence herbicidal action rating, Pani (Panicum (Pani) [8]) | Post-emergence herbicidal action rating, Seta (Setaria (Seta) [9]) | Post-emergence herbicidal action rating, Amar (Amaranthus (Amar) [10]) | Post-emergence herbicidal action rating, Eupho (Euphorbia (Eupho) [11]) | Herbicidal rating Cheno (Chenopodium (Cheno) [12]) | Herbicidal rating Stella (Stellaria (Stella) [13]) | Herbicidal rating Veronica (Veronica [14]) | Post-emergence herbicidal action rating, Stella (Stellaria (Stella) [15]) | Post-emergence herbicidal action rating, Veronica (Veronica [16])
1 | COc1cc(Cl)cnc1OCC#Cc1cccc(OCC#N)n1 [1.063, 2-[3-(6-cyanomethoxy-pyrid-2-yl)-prop-2-ynyloxy]-5-chloro-3-methoxypyridine] | 1 | 1 | 4 | 1 | 1 | 2 | 2 | 3 | 3 | 5 | 2 | 1 | – | – | – | – | –
2 | COc1cc(F)cnc1OCC#Cc1ccc(Cl)nc1 [2.005, 2-[3-(6-chloro-pyrid-3-yl)-prop-2-ynyloxy]-5-fluoro-3-methoxy-pyridine] | – | 1 | 1 | 5 | 4 | 4 | 3 | – | 4 | 3 | 1 | 1 | 1 | 1 | 4 | 2 | 2
3 | COc1cc(Cl)cnc1OCC#Cc1ccc(Cl)nc1 [2.006, 5-chloro-2-[3-(6-chloro-pyrid-3-yl)-prop-2-ynyloxy]-3-methoxy-pyridine] | 1 | 1 | 1 | 1 | 1 | 1 | 2 | – | 2 | 2 | 2 | 1 | – | 1 | 5 | 2 | 2
